Experiments:
[1] = target: T1, Human melanin-concentrating hormone (MCH1) (Homo sapiens, UniProt Q99705); assay: Radioligand binding, human melanin-concentrating hormone MCH1 membranes, FlashPlate, [125I]-S36057; conditions: compound at 10 μM
T1 construct: purchased Perkin Elmer Biosignal
How it was run: (§1)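 Cloned human receptor membranes were coated onto FlashPlate wells and incubated with radioligand and compound (added from a 0.5 mM DMSO daughter plate) for 1 hour at room temperature in the dark. Scintillation counting gave percent inhibition, with DMSO defining total and reference ligand defining non-specific binding.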

Mouse urotensin (mUR2) = target: T2, Mouse urotensin (mUR2) (Mus musculus, UniProt Q8VIH9); assay: Radioligand binding, mouse urotensin mUR2 membranes, FlashPlate, [125I]-Urotensin II; conditions: compound at 10 μM, [125I]-Urotensin II
T2 construct: purchased Perkin Elmer Biosignal
T2 sequence (Q8VIH9 1-385): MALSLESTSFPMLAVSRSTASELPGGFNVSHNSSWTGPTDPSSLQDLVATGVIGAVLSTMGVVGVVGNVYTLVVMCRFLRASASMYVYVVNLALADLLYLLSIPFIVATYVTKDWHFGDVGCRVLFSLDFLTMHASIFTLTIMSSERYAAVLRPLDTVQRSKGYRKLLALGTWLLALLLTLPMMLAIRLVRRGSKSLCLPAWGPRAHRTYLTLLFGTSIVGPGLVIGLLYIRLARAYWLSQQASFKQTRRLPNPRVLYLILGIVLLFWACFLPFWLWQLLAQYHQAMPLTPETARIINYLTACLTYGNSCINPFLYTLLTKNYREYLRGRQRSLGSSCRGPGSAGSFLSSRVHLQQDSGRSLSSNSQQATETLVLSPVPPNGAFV
How it was run: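 Cloned mouse urotensin (mUR2) receptor membranes from Perkin Elmer Biosignal were immobilized in FlashPlate microplates using a proprietary coating. Each well got 19.5 μl buffer, then 0.5 μl of DMSO, reference ligand, or compound. Adding 5 μl of [125I]-Urotensin II, diluted to 5× final concentration in binding buffer, started binding. Plates were sealed with TopSeal-A and incubated 1 hour at room temperature in the dark. Wells were counted for 30 seconds each on a TopCount after a 60-second delay, and percentage inhibition was calculated.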

Human δ-opioid (DOP) = target: T3, Human δ-opioid (DOP) (Homo sapiens, UniProt P41143); assay: Radioligand binding, human δ-opioid (DOP) membranes, FlashPlate, [3H]-Bremazocine; conditions: compound at 10 μM, [3H]-Bremazocine
T3 construct: purchased Perkin Elmer Biosignal
How it was run: as §1

Human melanocortin (MC5) = target: T4, Human melanocortin (MC5) (Homo sapiens, UniProt P33032); assay: Radioligand binding, human melanocortin MC5 membranes, FlashPlate, [125I]-NDP-αMSH; conditions: compound at 10 μM, [125I]-NDP-αMSH
T4 construct: purchased Perkin Elmer Biosignal
How it was run: as §1

Human κ-Opioid (KOP) = target: T5, Human κ-Opioid (KOP) (Homo sapiens, UniProt P41145); assay: Radioligand binding, human κ-opioid (KOP) membranes, filtration, [3H]-Diprenorphine; conditions: compound at 10 μM, [3H]-Diprenorphine
T5 construct: purchased Perkin Elmer Biosignal
How it was run: (§2)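 Filtration binding on cloned human receptor membranes (1 Unit/well), [125I]-Substance P for NK1 and [3H]-Diprenorphine for KOP, 1 h at room temperature. Filters PEI-presoaked, washed with cold 50 mM Tris-HCl pH 7.4, counted by scintillation; percent inhibition calculated, reference ligand defining non-specific binding.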

Human Melanocortin (MC3) = target: T6, Human Melanocortin (MC3) (Homo sapiens, UniProt P41968); assay: Radioligand binding, human melanocortin MC3 membranes, FlashPlate, [125I]-NDP-αMSH; conditions: compound at 10 μM, [125I]-NDP-αMSH
T6 construct: purchased Perkin Elmer Biosignal
How it was run: as §1

Human neurokinin (NK1) = target: T7, Human neurokinin (NK1) (Homo sapiens, UniProt P25103); assay: Radioligand binding, human neurokinin NK1 membranes, filtration, [125I]-Substance P; conditions: compound at 10 μM, [125I]-Substance P
T7 construct: purchased Perkin Elmer Biosignal
How it was run: as §2

Human μ-opioid (MOP) = target: T8, Human μ-opioid (MOP) (Homo sapiens, UniProt P35372); assay: Radioligand binding, human μ-opioid (MOP) membranes, FlashPlate, [3H]-Naloxone; conditions: compound at 10 μM, [3H]-Naloxone
T8 construct: purchased Perkin Elmer Biosignal
How it was run: as §1

Human opioid (ORL1) = target: T9, Human opioid (ORL1) (Homo sapiens, UniProt P41146); assay: Radioligand binding, human opioid ORL1 membranes, FlashPlate, [125I]-Nociceptin; conditions: compound at 10 μM, [125I]-Nociceptin
T9 construct: purchased Perkin Elmer Biosignal
How it was run: as §1

[2] = target: T10, Human neuropeptide Y (NPY-Y1) (Homo sapiens, UniProt P25929); assay: Radioligand binding, human neuropeptide Y NPY-Y1 membranes, FlashPlate, [125I]-PYY; conditions: compound at 10 μM, [125I]-PYY
T10 construct: purchased Perkin Elmer Biosignal
T10 sequence (P25929 1-384): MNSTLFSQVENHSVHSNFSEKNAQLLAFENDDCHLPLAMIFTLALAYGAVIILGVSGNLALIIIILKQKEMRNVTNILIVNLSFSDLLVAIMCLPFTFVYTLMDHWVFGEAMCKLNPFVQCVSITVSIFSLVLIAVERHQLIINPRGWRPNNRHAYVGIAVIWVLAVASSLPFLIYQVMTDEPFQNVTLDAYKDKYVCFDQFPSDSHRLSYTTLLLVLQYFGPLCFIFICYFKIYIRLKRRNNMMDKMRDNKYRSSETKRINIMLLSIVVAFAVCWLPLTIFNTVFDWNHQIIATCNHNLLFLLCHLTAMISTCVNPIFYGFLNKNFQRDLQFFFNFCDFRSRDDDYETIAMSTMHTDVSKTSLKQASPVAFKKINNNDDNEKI
How it was run: as §1

Human Melanocortin (MC4) = target: T11, Human Melanocortin (MC4) (Homo sapiens, UniProt P32245); assay: Radioligand binding, human melanocortin MC4 membranes, FlashPlate, [125I]-NDP-αMSH; conditions: compound at 10 μM, [125I]-NDP-αMSH
T11 construct: purchased Perkin Elmer Biosignal
How it was run: as §1

T9 sequence (P41146 whole entry): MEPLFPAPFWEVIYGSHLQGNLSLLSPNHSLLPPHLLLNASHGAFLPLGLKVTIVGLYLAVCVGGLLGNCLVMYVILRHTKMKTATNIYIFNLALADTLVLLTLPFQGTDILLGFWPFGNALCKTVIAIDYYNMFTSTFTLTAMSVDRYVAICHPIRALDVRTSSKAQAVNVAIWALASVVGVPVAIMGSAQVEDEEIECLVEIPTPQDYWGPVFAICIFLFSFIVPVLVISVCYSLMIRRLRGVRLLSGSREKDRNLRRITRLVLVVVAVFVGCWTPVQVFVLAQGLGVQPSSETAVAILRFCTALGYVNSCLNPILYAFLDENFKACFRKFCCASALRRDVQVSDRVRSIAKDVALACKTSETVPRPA
T11 sequence (P32245 whole entry): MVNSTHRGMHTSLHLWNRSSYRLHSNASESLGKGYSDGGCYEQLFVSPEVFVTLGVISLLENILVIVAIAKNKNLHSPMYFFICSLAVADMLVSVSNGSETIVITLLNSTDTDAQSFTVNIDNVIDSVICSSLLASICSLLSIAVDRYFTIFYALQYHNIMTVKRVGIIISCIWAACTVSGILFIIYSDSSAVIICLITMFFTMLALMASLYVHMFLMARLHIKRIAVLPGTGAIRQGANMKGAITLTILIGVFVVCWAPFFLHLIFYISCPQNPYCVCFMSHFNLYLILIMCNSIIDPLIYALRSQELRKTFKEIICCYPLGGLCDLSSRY
T3 sequence (P41143 whole entry): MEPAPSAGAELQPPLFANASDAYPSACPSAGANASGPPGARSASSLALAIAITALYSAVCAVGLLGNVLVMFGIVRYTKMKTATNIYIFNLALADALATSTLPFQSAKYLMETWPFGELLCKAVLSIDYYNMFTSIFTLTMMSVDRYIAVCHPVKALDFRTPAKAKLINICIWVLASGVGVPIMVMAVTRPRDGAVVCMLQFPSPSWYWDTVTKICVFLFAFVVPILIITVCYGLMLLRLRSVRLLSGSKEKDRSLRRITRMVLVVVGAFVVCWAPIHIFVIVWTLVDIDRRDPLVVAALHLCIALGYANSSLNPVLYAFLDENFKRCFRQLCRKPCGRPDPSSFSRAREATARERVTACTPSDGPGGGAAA
T1 sequence (Q99705 whole entry): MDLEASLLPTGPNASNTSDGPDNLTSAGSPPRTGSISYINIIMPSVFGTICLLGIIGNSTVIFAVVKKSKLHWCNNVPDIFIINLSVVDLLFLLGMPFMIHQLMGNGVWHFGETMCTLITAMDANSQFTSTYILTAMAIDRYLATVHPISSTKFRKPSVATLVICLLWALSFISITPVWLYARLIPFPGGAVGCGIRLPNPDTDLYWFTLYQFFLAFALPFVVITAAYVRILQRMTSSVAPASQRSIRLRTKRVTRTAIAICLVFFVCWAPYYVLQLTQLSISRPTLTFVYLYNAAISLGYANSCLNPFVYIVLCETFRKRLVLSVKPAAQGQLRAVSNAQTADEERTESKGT
T7 sequence (P25103 whole entry): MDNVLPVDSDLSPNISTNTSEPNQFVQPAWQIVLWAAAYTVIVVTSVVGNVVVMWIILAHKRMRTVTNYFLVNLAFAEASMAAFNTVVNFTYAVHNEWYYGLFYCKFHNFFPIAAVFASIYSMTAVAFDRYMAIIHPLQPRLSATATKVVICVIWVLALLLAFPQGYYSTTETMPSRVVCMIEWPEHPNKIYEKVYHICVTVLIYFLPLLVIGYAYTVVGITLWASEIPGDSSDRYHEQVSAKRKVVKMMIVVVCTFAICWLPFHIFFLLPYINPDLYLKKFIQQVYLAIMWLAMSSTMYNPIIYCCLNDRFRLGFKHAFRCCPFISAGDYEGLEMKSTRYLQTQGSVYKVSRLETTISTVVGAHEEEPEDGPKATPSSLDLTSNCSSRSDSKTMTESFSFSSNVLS
T8 sequence (P35372 whole entry): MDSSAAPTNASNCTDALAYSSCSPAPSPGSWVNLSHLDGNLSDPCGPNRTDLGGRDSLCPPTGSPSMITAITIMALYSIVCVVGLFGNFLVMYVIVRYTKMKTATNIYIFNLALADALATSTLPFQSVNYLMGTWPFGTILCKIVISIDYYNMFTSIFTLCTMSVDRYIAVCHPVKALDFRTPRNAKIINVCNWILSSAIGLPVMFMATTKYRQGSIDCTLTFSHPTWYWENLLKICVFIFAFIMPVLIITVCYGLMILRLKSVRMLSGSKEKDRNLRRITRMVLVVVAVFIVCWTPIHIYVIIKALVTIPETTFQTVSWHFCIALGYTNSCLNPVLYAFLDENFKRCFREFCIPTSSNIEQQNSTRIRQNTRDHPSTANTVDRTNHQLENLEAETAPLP
T4 sequence (P33032 whole entry): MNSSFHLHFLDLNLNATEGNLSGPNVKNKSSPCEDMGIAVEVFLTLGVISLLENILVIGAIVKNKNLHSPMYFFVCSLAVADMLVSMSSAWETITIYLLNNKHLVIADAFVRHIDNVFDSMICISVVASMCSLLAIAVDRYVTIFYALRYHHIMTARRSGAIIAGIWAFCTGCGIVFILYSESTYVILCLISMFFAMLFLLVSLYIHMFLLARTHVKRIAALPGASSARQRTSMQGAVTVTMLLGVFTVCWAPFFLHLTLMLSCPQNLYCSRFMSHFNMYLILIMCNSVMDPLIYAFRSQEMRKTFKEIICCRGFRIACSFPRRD
T5 sequence (P41145 whole entry): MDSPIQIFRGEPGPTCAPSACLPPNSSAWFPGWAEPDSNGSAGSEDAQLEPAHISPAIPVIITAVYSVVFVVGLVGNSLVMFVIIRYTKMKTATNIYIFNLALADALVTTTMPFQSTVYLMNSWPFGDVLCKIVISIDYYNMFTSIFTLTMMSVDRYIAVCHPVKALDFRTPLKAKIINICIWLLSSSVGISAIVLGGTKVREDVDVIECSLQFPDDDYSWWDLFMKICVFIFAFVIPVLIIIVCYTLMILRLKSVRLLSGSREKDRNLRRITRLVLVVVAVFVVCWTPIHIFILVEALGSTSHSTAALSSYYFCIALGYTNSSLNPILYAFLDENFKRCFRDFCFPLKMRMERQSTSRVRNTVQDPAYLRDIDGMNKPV
T6 sequence (P41968 whole entry): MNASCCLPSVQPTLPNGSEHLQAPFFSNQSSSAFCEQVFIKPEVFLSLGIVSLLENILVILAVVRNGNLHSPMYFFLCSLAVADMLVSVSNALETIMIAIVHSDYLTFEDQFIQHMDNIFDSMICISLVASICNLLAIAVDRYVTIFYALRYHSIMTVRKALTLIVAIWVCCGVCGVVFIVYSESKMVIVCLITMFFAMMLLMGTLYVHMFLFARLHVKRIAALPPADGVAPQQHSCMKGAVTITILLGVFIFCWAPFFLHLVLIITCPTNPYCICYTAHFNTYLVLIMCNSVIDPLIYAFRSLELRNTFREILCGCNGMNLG

N=C(N)NCCC(=O)NC1C(OCc2ccc(Cl)cc2)OC(COCc2ccc3ccccc3c2)C(O)C1OCc1ccc(Cl)cc1 (stereo not shown) [compound 426]
A6: inhibition of radioligand binding ([1]; [125I]-S36057, human MCH1 membranes): + (“+” indicates greater than 50% inhibition at 10 μM) | A11: inhibition of radioligand binding (Mouse urotensin (mUR2); mouse mUR2 membranes): − (“−” indicates less than 50% inhibition at 10 μM) | A1: inhibition of radioligand binding (Human δ-opioid (DOP); human DOP membranes): − (“−” indicates less than 50% inhibition at 10 μM) | A5: inhibition of radioligand binding (Human melanocortin (MC5); human MC5 membranes): + (“+” indicates greater than 50% inhibition at 10 μM) | A2: inhibition of radioligand binding (Human κ-Opioid (KOP); human KOP membranes): − (“−” indicates less than 50% inhibition at 10 μM) | A3: inhibition of radioligand binding (Human Melanocortin (MC3); human MC3 membranes): + (“+” indicates greater than 50% inhibition at 10 μM) | A8: inhibition of radioligand binding (Human neurokinin (NK1); human NK1 membranes): + (“+” indicates greater than 50% inhibition at 10 μM) | A7: inhibition of radioligand binding (Human μ-opioid (MOP); human MOP membranes): − (“−” indicates less than 50% inhibition at 10 μM) | A10: inhibition of radioligand binding (Human opioid (ORL1); human ORL1 membranes): + (“+” indicates greater than 50% inhibition at 10 μM) | A9: inhibition of radioligand binding ([2]; human NPY-Y1 membranes): + (“+” indicates greater than 50% inhibition at 10 μM) | A4: inhibition of radioligand binding (Human Melanocortin (MC4); human MC4 membranes): + (“+” indicates greater than 50% inhibition at 10 μM)

CSC1O[C@H](COCc2ccc3ccccc3c2)[C@@H](O)[C@@H](OCc2ccc(-c3ccccc3)cc2)[C@H]1NC(=O)CCN (stereo partly shown) [compound 297]
A6: inhibition of radioligand binding, human melanin-concentrating hormone (MCH1) ([1]; [125I]-S36057): − (“−” indicates less than 50% inhibition at 10 μM) | A11: inhibition of radioligand binding, mouse urotensin (mUR2) (Mouse urotensin (mUR2)): − (“−” indicates less than 50% inhibition at 10 μM) | A1: inhibition of radioligand binding, human δ-opioid (DOP) (Human δ-opioid (DOP)): − (“−” indicates less than 50% inhibition at 10 μM) | A5: inhibition of radioligand binding, human melanocortin (MC5) (Human melanocortin (MC5)): − (“−” indicates less than 50% inhibition at 10 μM) | A2: inhibition of radioligand binding, human κ-opioid (KOP) (Human κ-Opioid (KOP)): − (“−” indicates less than 50% inhibition at 10 μM) | A3: inhibition of radioligand binding, human melanocortin (MC3) (Human Melanocortin (MC3)): − (“−” indicates less than 50% inhibition at 10 μM) | A8: inhibition of radioligand binding, human neurokinin (NK1) (Human neurokinin (NK1)): + (“+” indicates greater than 50% inhibition at 10 μM) | A7: inhibition of radioligand binding, human μ-opioid (MOP) (Human μ-opioid (MOP)): − (“−” indicates less than 50% inhibition at 10 μM) | A10: inhibition of radioligand binding, human opioid (ORL1) (Human opioid (ORL1)): − (“−” indicates less than 50% inhibition at 10 μM) | A9: inhibition of radioligand binding, human neuropeptide Y (NPY-Y1) [2]: − (“−” indicates less than 50% inhibition at 10 μM) | A4: inhibition of radioligand binding, human melanocortin (MC4) (Human Melanocortin (MC4)): − (“−” indicates less than 50% inhibition at 10 μM)

Source: US20080009418A1, “Selective Inhibitors” (Alchemia LTD., priority 2004, published 2008)
